The target of the assay is K-Ras G12C (Homo sapiens, UniProt P01116, G12C). Nature of the assay: Fluorescence polarization assay of K-Ras G12C binding to Oregon green labelled RBD. The settings on record: for EC50: Ras:Raf (RBD) binding, 95% CI given alongside, read-out: EC50 of nucleotide:Ras complex for RBD. An excerpt:
Oregon green (OG) fluorescent dye was coupled to this cysteine in RBD using maleimide chemistry resulting in covalent addition of one OG, as verified by chromatography and mass spectrometry.
This allowed the testing of multiple nucleotides for their ability to induce Ras:Raf binding.
(In general: Polarisation of emitted light reports the rotation of a fluorescent probe.)

The values below come from patent US10723753B2, “Ras inhibitors and uses thereof” (Dana-Farber Cancer Institute, Inc., priority 2013, dated 2020).

As a reminder, the EC50 is the concentration that produces a half-maximal response.

For the compound `Nc1nc2c(ncn2[C@@H]2O[C@H](COP(=O)(O)OP(=O)(O)O)[C@@H](O)[C@H]2O)c(=O)[nH]1` [GDP], the concentration giving a half-maximal response (EC50) (fluorescence polarization) was 108 nM.
Turning to `CCCC(CCC)COC(=O)[C@H](C)NP(=O)(OCCNC(=O)CCl)OP(=O)(O)OC[C@H]1O[C@@H](n2cnc3c(=O)[nH]c(N)nc32)[C@H](O)[C@@H]1O` (stereo partly drawn) [Example 3, (2S)-2-propylpentyl 2-(((((((2R,3S,4R,5R)-5-(2-amino-6-oxo-1H-purin-9(6H)-yl)-3,4-dihydroxytetrahydrofuran-2-yl)methoxy)(hydroxy)phosphoryl)oxy)(2-(2-chloroacetamido)ethoxy)phosphoryl)amino)propanoate], the “Effect on binding of G12C K-Ras to the RBD protein” value (added at a 1:10 molar ratio to G12C K-Ras prior to the assay) is listed as “appeared to prevent binding”.
Take `Nc1nc2c(ncn2[C@@H]2O[C@H](COP(=O)(O)OP(=O)(O)OP(=O)(O)O)[C@@H](O)[C@H]2O)c(=O)[nH]1` [GTP]: the “Interaction of ligand-bound K-Ras G12C with RBD” value (fluorescence polarization, OG-labelled RBD, recombinant K-Ras G12C bound to the named ligand) is on record as “higher affinity for RBD than the GDP bound form”. Moreover, where the note is “fluorescence polarization”, the EC50 came to 26 nM.
